Test results published in ChEMBL document CHEMBL1201862, “PubChem BioAssay data set” (2004).
Counter-ions that a name gives are not always drawn.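 Values below derive from 48-hour exposures of cells grown in 96-well plates, with endpoints linearly interpolated between the two concentrations bracketing the appropriate inhibition level. GI50 marks 50% less growth.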 Calls of active or inactive are those of the source. No stated cut-off is given here; in the data, active = GI50 up to about 1.1 µM and inactive = higher.

Columns and labels:
Assay in all cases: inhibition of tumour cell growth, NCI panel, 48 h
OVCAR-3 = system: OVCAR-3
CCRF-CEM = system: CCRF-CEM
786-0 = system: 786-0
DU-145 = system: DU-145
SF-295 = system: SF-295
SF-268 = system: SF-268
HCC 2998 = system: HCC 2998
K562 = system: K562
LOX IMVI = system: LOX IMVI
ACHN = system: ACHN
SNB-75 = system: SNB-75
OVCAR-5 = system: OVCAR-5
MCF7 = system: MCF7
PC-3 = system: PC-3
SNB-19 = system: SNB-19
MOLT-4 = system: MOLT-4
Hs-578T = system: Hs-578T
M14 = system: M14
HCT-116 = system: HCT-116
HOP-92 = system: HOP-92

Row | SMILES | GI50 (OVCAR-3) | GI50 (CCRF-CEM) | GI50 (786-0) | GI50 (DU-145) | GI50 (SF-295) | GI50 (SF-268) | GI50 (HCC 2998) | GI50 (K562) | GI50 (LOX IMVI) | GI50 (ACHN) | GI50 (SNB-75) | GI50 (OVCAR-5) | GI50 (MCF7) | GI50 (PC-3) | GI50 (SNB-19) | GI50 (MOLT-4) | GI50 (Hs-578T) | GI50 (M14) | GI50 (HCT-116) | GI50 (HOP-92)
1 | C[C@H](CCC(=O)O[C@@H]1CC[C@@]2(C)C(CC[C@H]3[C@@H]4CC[C@H]([C@H](C)CCc5nc6ccccc6[nH]5)[C@@]4(C)CC[C@@H]32)C1)[C@H]1CC[C@H]2[C@@H]3CCC4C[C@H](O)CC[C@]4(C)[C@H]3CC[C@]12C (stereo not given in full) | > 100 µM (inactive) | > 100 µM (inactive) | 11.5 µM (inactive) | > 100 µM (inactive) | 16.7 µM (inactive) | 5.38 µM (inactive) | 2.54 µM (inactive) | > 100 µM (inactive) | 3.95 µM (inactive) | 4.13 µM (inactive) | 3.97 µM (inactive) | > 100 µM (inactive) | 6.34 µM (inactive) | > 100 µM (inactive) | 5.48 µM (inactive) | > 100 µM (inactive) | 0.494 µM (active) | > 100 µM (inactive) | > 100 µM (inactive) | > 100 µM (inactive)
2 | CC1(C)CC(=O)C(=CNc2nc(-c3cccc([N+](=O)[O-])c3)cs2)C(=O)C1 | 29 µM (inactive) | 2 µM (inactive) | 15.1 µM (inactive) | 29.4 µM (inactive) | 37.2 µM (inactive) | 15 µM (inactive) | 15.7 µM (inactive) | 16.6 µM (inactive) | 13.7 µM (inactive) | 18.2 µM (inactive) | 14.9 µM (inactive) | 46.3 µM (inactive) | 15.8 µM (inactive) | 24.8 µM (inactive) | 15.3 µM (inactive) | 10.5 µM (inactive) | 18.9 µM (inactive) | 15.8 µM (inactive) | 14.9 µM (inactive) | 17.3 µM (inactive)
3 | O=C1c2cccc3cccc(c23)C(=O)N1CCCNCCCCNCCCNCCCN1C(=O)c2cccc3cccc(c23)C1=O [BISNAPHTHALIMIDOPROPYL SPERMIDINE TRIHYDROBROMIDE] | 0.662 µM (active) | 0.111 µM (active) | 0.175 µM (active) | 0.371 µM (active) | 5.92 µM (inactive) | 0.282 µM (active) | 0.586 µM (active) | 0.557 µM (active) | 0.316 µM (active) | 1.22 µM (inactive) | 0.319 µM (active) | 0.585 µM (active) | 0.0343 µM (active) | 0.535 µM (active) | 0.403 µM (active) | 0.0333 µM (active) | 0.0378 µM (active) | 1.52 µM (inactive) | 0.399 µM (active) | 0.935 µM (active)
4 | COC(=O)C1=COC2OC3C(C(C)O)C(=O)OC34C=CC1C24 (stereo not given) | 29.5 µM (inactive) | 14.9 µM (inactive) | 53.8 µM (inactive) | 57.1 µM (inactive) | 56.6 µM (inactive) | 49 µM (inactive) | > 100 µM (inactive) | 32.2 µM (inactive) | 47.3 µM (inactive) | 44.7 µM (inactive) | 35.8 µM (inactive) | 51.9 µM (inactive) | 40.1 µM (inactive) | 85.5 µM (inactive) | 51.5 µM (inactive) | 24.3 µM (inactive) | 34 µM (inactive) | 55.6 µM (inactive) | 47.5 µM (inactive) | 55.7 µM (inactive)
5 | Cc1cc(C)nc(NS(=O)(=O)c2ccc(NNc3c4ccccc4nc4c(C(=O)Nc5ccc(S(=O)(=O)Nc6ncccn6)cc5)cccc34)cc2)n1 | 19.2 µM (inactive) | 22.8 µM (inactive) | 39.3 µM (inactive) | 31.8 µM (inactive) | 32.4 µM (inactive) | 31.9 µM (inactive) | 26.7 µM (inactive) | 28.6 µM (inactive) | 20.7 µM (inactive) | 23.3 µM (inactive) | 37.5 µM (inactive) | 16.4 µM (inactive) | 52.8 µM (inactive) | 26.5 µM (inactive) | 34.6 µM (inactive) | 32.5 µM (inactive) | 71.8 µM (inactive) | 33.7 µM (inactive) | 17.4 µM (inactive) | 27.3 µM (inactive)
6 | CCCCCCCC/C=C\CCCCCCCC(=O)OC[C@]1(CO)CCC(=O)O1 | > 100 µM (inactive) | > 100 µM (inactive) | > 100 µM (inactive) | > 100 µM (inactive) | > 100 µM (inactive) | > 100 µM (inactive) | > 100 µM (inactive) | > 100 µM (inactive) | > 100 µM (inactive) | > 100 µM (inactive) | > 100 µM (inactive) | > 100 µM (inactive) | > 100 µM (inactive) | > 100 µM (inactive) | > 100 µM (inactive) | > 100 µM (inactive) | > 100 µM (inactive) | > 100 µM (inactive) | > 100 µM (inactive) | > 100 µM (inactive)
